≈ marks a conversion by molar mass, not a printed value. Where two headings read alike, the source gives them in different places.
Tests used:
solubility in water = format: physicochemical; details: parts of water needed to dissolve the salt
[1] = test system: Streptococcus beta-haemolyticus; test: in vitro antibacterial activity (MIC) against hospital strains; format: cell-based
[2] = Streptococcus beta-haemolyticus strain B (hospital strain)
[3] = Streptococcus beta-haemolyticus strain C (hospital strain)
[4] = Streptococcus beta-haemolyticus strain D (hospital strain)
[5] = Streptococcus beta-haemolyticus strain A (hospital strain)

soluble in p. water (solubility in water) | soluble in p. ethanol 95% v/v (solubility in ethanol) | Compound | MIC [1, 2] | MIC [1, 3] | MIC [1, 4] | MIC [1, 5] | MIC ([1]; Streptococcus, Streptococcus beta-haemolyticus strain C (hospital strain)) | MIC ([1]; Streptococcus, Streptococcus beta-haemolyticus strain A (hospital strain), read-out: MIC) | MIC ([1]; Streptococcus, Streptococcus beta-haemolyticus strain B (hospital strain), read-out: MIC) | MIC ([1]; Streptococcus, Streptococcus beta-haemolyticus strain C (hospital strain), read-out: MIC) | MIC ([1]; Streptococcus, Streptococcus beta-haemolyticus strain D (hospital strain), read-out: MIC)
– | – | CC[C@H]1OC(=O)[C@H](C)[C@@H](O[C@H]2C[C@@](C)(OC)[C@@H](O)[C@H](C)O2)[C@H](C)[C@@H](O[C@@H]2O[C@H](C)C[C@H](N(C)C)[C@H]2O)[C@](C)(O)C[C@@H](C)C(=O)[C@H](C)[C@@H](O)[C@]1(C)O [Erythromycin base, erythromycin A, reference compound] | – | – | 0.6 µg⁻¹ mL⁻¹ | 5 µg⁻¹ mL⁻¹ | 0.6 µg/mL (≈ 0.818 µM) | – | – | – | –
90 p. | 2 p. | CCC(=O)O[C@H]1[C@H](O[C@@H]2[C@@H](C)[C@H](O[C@H]3C[C@@](C)(OC)[C@@H](O)[C@H](C)O3)[C@@H](C)C(=O)O[C@H](CC)[C@@](C)(O)[C@H](O)[C@@H](C)C(=O)[C@H](C)C[C@@]2(C)O)O[C@H](C)C[C@@H]1N(C)C [Propionylerythromycin (+)-alpha-mercapto-propionyl-glycinate] [Propionylerythromycin (+)-alpha-mercaptopropionyl-glycinate] | 0.3 µg⁻¹ mL⁻¹ | 0.3 µg⁻¹ mL⁻¹ | 0.3 µg⁻¹ mL⁻¹ | 5 µg⁻¹ mL⁻¹ | – | – | – | – | –
300 p. | 4 p. | CCC(=O)O[C@H]1[C@H](O[C@@H]2[C@@H](C)[C@H](O[C@H]3C[C@@](C)(OC)[C@@H](O)[C@H](C)O3)[C@@H](C)C(=O)O[C@H](CC)[C@@](C)(O)[C@H](O)[C@@H](C)C(=O)[C@H](C)C[C@@]2(C)O)O[C@H](C)C[C@@H]1N(C)C [Propionylerythromycin acetylsalicylate] | 0.3 µg⁻¹ mL⁻¹ | 0.3 µg⁻¹ mL⁻¹ | 0.3 µg⁻¹ mL⁻¹ | 5 µg⁻¹ mL⁻¹ | – | – | – | – | –
– | – | CCC(=O)O[C@H]1[C@H](O[C@@H]2[C@@H](C)[C@H](O[C@H]3C[C@@](C)(OC)[C@@H](O)[C@H](C)O3)[C@@H](C)C(=O)O[C@H](CC)[C@@](C)(O)[C@H](O)[C@@H](C)C(=O)[C@H](C)C[C@@]2(C)O)O[C@H](C)C[C@@H]1N(C)C [Propionylerythromycin base, propionic ester (2'-.propanoate) of erythromycin A, reference compound] | – | – | – | – | – | 2.5 µg/mL (≈ 3.16 µM) | 0.6 µg/mL (≈ 0.759 µM) | 0.6 µg/mL (≈ 0.759 µM) | 0.6 µg/mL (≈ 0.759 µM)
60 p. | 2 p. | CCC(=O)O[C@H]1[C@H](O[C@@H]2[C@@H](C)[C@H](O[C@H]3C[C@@](C)(OC)[C@@H](O)[C@H](C)O3)[C@@H](C)C(=O)O[C@H](CC)[C@@](C)(O)[C@H](O)[C@@H](C)C(=O)[C@H](C)C[C@@]2(C)O)O[C@H](C)C[C@@H]1N(C)C [propionylerythromycin (-)-alpha-propionyl-glycinate] | – | – | – | – | – | – | – | – | –

Compound | soluble in p. water (solubility in water) | soluble in p. ethanol 95% v/v (solubility in ethanol) | MIC [1, 2] | MIC [1, 3] | MIC [1, 4] | MIC [1, 5] | MIC ([1]; Streptococcus, Streptococcus beta-haemolyticus strain C (hospital strain)) | MIC ([1]; Streptococcus, Streptococcus beta-haemolyticus strain A (hospital strain), read-out: MIC) | MIC ([1]; Streptococcus, Streptococcus beta-haemolyticus strain B (hospital strain), read-out: MIC) | MIC ([1]; Streptococcus, Streptococcus beta-haemolyticus strain C (hospital strain), read-out: MIC) | MIC ([1]; Streptococcus, Streptococcus beta-haemolyticus strain D (hospital strain), read-out: MIC)
CC[C@H]1OC(=O)[C@H](C)[C@@H](O[C@H]2C[C@@](C)(OC)[C@@H](O)[C@H](C)O2)[C@H](C)[C@@H](O[C@@H]2O[C@H](C)C[C@H](N(C)C)[C@H]2O)[C@](C)(O)C[C@@H](C)C(=O)[C@H](C)[C@@H](O)[C@]1(C)O [Erythromycin acetylsalicylate] | 100 p. | – | 0.6 µg⁻¹ mL⁻¹ | 0.3 µg⁻¹ mL⁻¹ | 0.075 µg⁻¹ mL⁻¹ | – | – | – | – | – | –
